According to patent US11517575B2, “Use of minaprine to reduce tumor growth” (Institut Gustave-Roussy, priority 2019, dated 2022):

Tested on: HCT116 cells
Experiment: Screening of chemical libraries for IR-mediated cellular cannibalism (imaging flow cytometry, confocal validation)
Type: cell-based, human
Conditions: for enhancement of IR-mediated cellular cannibalism: 8 Gy irradiated HCT116 cells, 10 μM compound, 24 h culture, dihydrochloride
Description: FIG. 4 Identification of cannibalism modulators triggered by ionizing radiation. Compounds from the Prestwick (A) and CEA (F) libraries were tested for their capacities to induce cellular cannibalism after ionizing radiation. Cannibal cells were detected after homotypic cultures of 8 gray γ-irradiation HCT116 cells in the presence or absence of 10 μM of the Prestwick (A) and CEA […] library compounds. Each dot represents one compound. Representative images are shown in (B, G). (C, H) HCT116 cells were treated with the indicated drugs. After 24 h of treatment, cell death was monitored by staining with 3,3 dihexyloxacarbocyanine iodide (DiOC6(3)) and PI^+, and the percentage of dying (DiOC6(3)^low PI^−, open bars) and dead (DiOC6(3)^low PI^+, closed bars) cells was determined by cytofluorometry. Validation of the cannibalism inducers by fluorescent microscopy. Representative images (D, I) and quantification (E, J) are shown. Results are means s.e.m. of triplicate determinations.
Untreated HCT116 cells were labeled with CMFDA (green fluorescence, CMFDA^+) or CMTMR, (red fluorescence, CMTMR) and treated HCT116 cells with CMFDA (green fluorescence, CMFDA^+). The following cell mixtures were performed: untreated CMTMR^+ HCT116 cells were mixed with untreated CMFDA^+ HCT116 cells, or untreated CMTMR^+ HCT116 cells were mixed with treated CMFDA^+ HCT116 cells. Then, cells were co-cultured during 24 hours in the presence or absence of the pharmacological inhibitor of ROCK, Y27632 (30 μM), the pan-caspase inhibitor, Z-VAD-fmk (ZVAD, 100 μM), the inhibitor of caspase-1, Ac-YVAD-cmk (YVAD, 100 μM), the necroptosis inhibitor, Necrostatin-1 (NEC1, 30 μM), the inhibitor of the vacuolar type H(+)-ATPase (V-ATPase) inhibiting autophagy, Bafilomycin A1 (BafA1, 50 nM), the inhibitor of Cdks with an anti-mitotic activity, Roscovitine (Rosco, 10 μM). After 24 hours of co-culture, both detached and adherent cells were collected and stained with Hoechst […] (10 μg/mL) during 1 hour at 37° C. in warmed complete medium. To detect phosphatidylserine (PS) exposure and plasma membrane permeability, labeled HCT116 cells were successively incubated with Biotin-AnnexinV (BD Pharmingen) as recommended by manufacturer, […] BV786-Streptavidin (BD Biosciences) and 3 μM DRAQ7 (BioStatus) during 15 minutes at 25° C. After washing with PBS solution, samples were immediately analyzed using an imaging flow cytometer FlowSight® (Amnis®, part of EMD Millipore). Data were acquired at a 20× magnification, using INSPIRE software. The 405 nm, 488 nm, and 561 nm lasers were used for excitation. Brightfield, Annexin V-BV786, DRAQ7, CMFDA, CMTMR and Hoechst […] stainings were detected using respectively channels for 420-480 nm, 745-800 nm, 642-745 nm, 480-560 nm, 595-642 nm and 430-505 nm. At least 1000 events of cells per sample were analyzed. Additional single-labeled controls were prepared to normalize fluorescent signal across different channels. Acquired data were analyzed using the IDEAS analysis software (v6.1; Merck-Millipore). Gating strategy was the following. Cells were gated for focused cells using the Gradient RMS feature. Cells were gated for single cells using the aspect ratio and area features. For the cannibalism detection, cells were gated in the double positive CMFDA^+ and CMTMR^+ staining.
To detect PS exposure, plasma membrane permeability and cell cycle progression, cells were after co-culture sequentially labeled with specific fluorescent probes (such as FITC-conjugated AnnexinV, propidium iodide, and Hoechst 33342) and analyzed by flow cytometry. Both detached and adherent cells were collected and stained with Hoechst […] (10 μg/ml) during 1 hour at 37° C. in warmed complete medium. After washing with PBS, HCT116 cells were suspended in 1× binding buffer supplemented with fluorescein isothiocyanate (FITC)-conjugated Annexin V (BD Biosciences) and propidium iodide (PI, 1 μg/mL) (Sigma), as per manufacturer's instructions. […]

Cc1cc(-c2ccccc2)nnc1NCCN1CCOCC1.Cl.Cl [Minaprine dihydrochloride]
enhancement of IR-mediated cellular cannibalism: efficient cellular cannibalism enhancer | enhancement of IR-mediated cellular cannibalism (listed as Minaprine): significantly increased in presence of ionizing radiation | induction of cellular cannibalism (Type IV cell death) (cancer cells treated with compound, without IR): favors the induction of Type IV cell death modality
